Measured values published in patent US8338465B2, “Cyclic carboxylic acid rhodanine derivatives for the treatment and prevention of tuberculosis” (priority 2006, dated 2012).
Several values for one entry are separate records, joined by “and”; a condition that tells them apart may be missing. Equal entries are not always repeated. Where two headings read alike, the source gives them in different places.

Assays:
[1] = molecular target: T1, dihydrolipoamide acyltransferase (DlaT) (Mycobacterium tuberculosis, UniProt P9WIS7); test: DlaT inhibition (Dlat IC50); DTNB peroxidase assay with Lpd, DlaT and AhpD; assay type: biochemical
T1 sequence (P9WIS7 1-553): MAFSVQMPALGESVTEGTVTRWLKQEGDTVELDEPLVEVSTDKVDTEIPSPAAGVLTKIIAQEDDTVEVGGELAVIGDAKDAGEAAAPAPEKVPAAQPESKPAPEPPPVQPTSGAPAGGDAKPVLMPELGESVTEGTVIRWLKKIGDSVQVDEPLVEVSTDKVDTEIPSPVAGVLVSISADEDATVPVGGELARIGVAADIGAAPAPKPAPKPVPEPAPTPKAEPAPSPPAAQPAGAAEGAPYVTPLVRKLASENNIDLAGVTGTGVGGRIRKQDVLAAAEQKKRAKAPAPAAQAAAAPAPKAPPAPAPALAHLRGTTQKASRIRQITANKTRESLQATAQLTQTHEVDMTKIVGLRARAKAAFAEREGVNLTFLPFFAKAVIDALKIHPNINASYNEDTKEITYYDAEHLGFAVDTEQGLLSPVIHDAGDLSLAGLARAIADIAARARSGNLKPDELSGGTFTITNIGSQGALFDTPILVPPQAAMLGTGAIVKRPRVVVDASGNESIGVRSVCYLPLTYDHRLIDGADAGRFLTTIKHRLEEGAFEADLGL

Mtb's PDH = molecular target: T2, Mtb's PDH (Mycobacterium tuberculosis, UniProt P9WIS7); test: PDH assay with Lpd, DlaT and AceE (NADH formation at 340 nm); assay type: biochemical; conditions: preincubation at room temperature, remaining activity over time; FIG. 4
T2 sequence (P9WIS7 1-553): T1 sequence (P9WIS7 1-553)
Method: Reaction mixtures containing 200 nM Lpd, 350 nM DlaT, 200 nM AceE with or without 1 mM NAD+, 1 mM pyruvate, […] and […] D155931 were preincubated at room temperature and […] tested for remaining activity over time by PDH assay.

[2] = tested on: Mycobacterium bovis var. Bacille Calmette Guerin (BCG); assay type: cell-based; conditions: pH 5.5 or pH 4.5, plus or minus NaNO2, 4 days, CFU; FIGS. 6 and 7
bacteria and yeast = conditions: 10^4-10^5 CFU/mL inoculum
Method: (§1) Bacteria were grown to mid-logarithmic phase, diluted to A600=0.1 and inoculated in 200 μl in 96-well plates in the presence of serial dilutions of compounds or vehicle control (DMSO). MICs (minimal concentrations that prevented bacterial growth) were determined at A600 after 24 hours incubation at 37° C.

Staphylococcus aureus = test: MIC determination (A600 after 24 hours); conditions: for MIC: Staphylococcus aureus, 10^4-10^5 CFU/mL inoculum
Method: as §1

Enterococcus faecalis = test: MIC determination (A600 after 24 hours); conditions: for MIC: Enterococcus faecalis
Method: as §1

[3] = tested on: PDH complex from porcine heart; test: PDH assay with porcine heart PDH complex; conditions: increasing concentrations up the limit of its solubility; FIG. 5
[4] = tested on: Mycobacterium tuberculosis; test: Killing of M. tuberculosis at acidic pH plus or minus nitrite (CFU counts); conditions: pH 5.5 or pH 4.5, plus or minus NaNO2, 4 days, FIG. 8
Text: In vitro, RNI can be generated under physiologically relevant conditions by provision of nitrite at a mildly acidified pH. During infection, Mtb resides chiefly in the phagosome of macrophages, where the pH is ˜6 in immunologically non-activated cells and can fall to ˜4.5 in those that have been activated by interferon-γ. Activated macrophages produce RNI, the most abundant of which is the accumulating autoxidation product of NO, nitrite (NO2^−). In the present assay, the intraphagosomal milieu of moderately activated macrophages was partially mimicked by culturing mycobacteria at pH 5.5 with nitrite. […] At pH 5.5, 0.5 mM nitrite generates an amount of NO no greater than that released by 3×10^5 activated macrophages in 0.5 mL in 24 hours. In the present assay pH 5.5, with or without 0.5 mM nitrite, was used.
M. tuberculosis was grown in 7H9+0.2% glycerol+0.05% Tween-80+10% ADN, pH 6.6. CFU were enumerated on 7H11 agar plates with 10% OADC enrichment. Mid-log cultures (A580 0.8-1.0) were prepared as single cell suspensions in 7H9 at pH 5.5 or pH 4.5 and diluted to 0.1 (A580). Inoculum was determined by CFU. Bacteria were incubated with compounds plus or minus 0.5 mM NaNO2 (pH 5.5) or 0.05 NaNO2 (pH 4.5) in 96 well plates in 200 μl for 4 days and plated for CFU counts after serial dilution in 7H9, pH 6.6.

**Q.** With `O=C(O)c1cccc(N2C(=O)C(=Cc3ccc(-c4ccccc4Cl)o3)SC2=S)c1` (single isomer, unassigned) [Mycopyrin 5, 3-[5[[5-(2-chlorophenyl)-2-furanyl]methylene]-4-oxo-2-thioxo-3-thiazolidinyl]benzoic acid] as the compound, how does the IC50 ([1]; Dlat IC50 category, Table 1, Compounds A1 to A294) read?
**A.** 11 to 40 µM

**Q.** What about the “reversibility of DlaT inhibition” value ([1]; in presence of NADH, preincubation at room temperature, remaining activity over time, FIG. 3) of the same compound?
**A.** irreversible inhibitor

**Q.** And the “type of inhibition of Mtb's PDH” value (Mtb's PDH)?
**A.** time-dependent, substrate-independent inhibitor

**Q.** What about the “bactericidal activity to M. bovis BCG” value [2] of the same compound?
**A.** bactericidal

**Q.** And the MIC (bacteria and yeast; Escherichia coli, pH 5.5)?
**A.** >50 μM and >22 μg/ml

**Q.** What about the MIC (bacteria and yeast; Escherichia coli, pH 6.6) of the same compound?
**A.** >50 μM and >22 μg/ml

**Q.** What about the MIC (bacteria and yeast; Pseudomonas aeruginosa, pH 5.5) of the same compound?
**A.** >50 μM and >22 μg/ml

**Q.** And the MIC (bacteria and yeast; Pseudomonas aeruginosa, pH 6.6)?
**A.** >50 μM and >22 μg/ml

**Q.** And the MIC (Staphylococcus aureus; pH 5.5, Staphylococcus aureus (brain heart infusion), pH 5.5)?
**A.** 5 µM and 2.2 µg/mL

**Q.** What about the MIC (Staphylococcus aureus; pH 5.5, Staphylococcus aureus (nutrient broth), pH 5.5) of the same compound?
**A.** 1 µM and 0.43 µg/mL

**Q.** And the MIC (Staphylococcus aureus; pH 6.6, Staphylococcus aureus (brain heart infusion), pH 6.6)?
**A.** > 50 µM and > 22 µg/mL

**Q.** And the MIC (Staphylococcus aureus; pH 6.6, Staphylococcus aureus (nutrient broth), pH 6.6)?
**A.** 2.5 µM and 1.1 µg/mL

**Q.** And the “killing of Staphylococcus aureus” value (Staphylococcus aureus; Table 22)?
**A.** kills

**Q.** What about the MIC (Enterococcus faecalis; pH 5.5) of the same compound?
**A.** 5 µM and 2.2 µg/mL

**Q.** And the MIC (Enterococcus faecalis; pH 6.6)?
**A.** > 50 µM and > 22 µg/mL

**Q.** And the “killing of Enterococcus faecalis” value (Enterococcus faecalis; Table 22)?
**A.** kills

**Q.** And the “inhibition of porcine PDH” value [3]?
**A.** does not inhibit

**Q.** What about the “bactericidal activity to Mycobacterium tuberculosis” value [4] of the same compound?
**A.** bactericidal
